Measurements reported in publication PMC12289921 (Nature Communications, 2025).

Target: PPIL4 with GFP-CRBN-DDB1∆B (Homo sapiens, UniProt Q8WUA2+Q96SW2)
Assay: TR-FRET ternary complex formation
Format: binding

Sequence of PPIL4 with GFP-CRBN-DDB1∆B (Q96SW2 whole entry): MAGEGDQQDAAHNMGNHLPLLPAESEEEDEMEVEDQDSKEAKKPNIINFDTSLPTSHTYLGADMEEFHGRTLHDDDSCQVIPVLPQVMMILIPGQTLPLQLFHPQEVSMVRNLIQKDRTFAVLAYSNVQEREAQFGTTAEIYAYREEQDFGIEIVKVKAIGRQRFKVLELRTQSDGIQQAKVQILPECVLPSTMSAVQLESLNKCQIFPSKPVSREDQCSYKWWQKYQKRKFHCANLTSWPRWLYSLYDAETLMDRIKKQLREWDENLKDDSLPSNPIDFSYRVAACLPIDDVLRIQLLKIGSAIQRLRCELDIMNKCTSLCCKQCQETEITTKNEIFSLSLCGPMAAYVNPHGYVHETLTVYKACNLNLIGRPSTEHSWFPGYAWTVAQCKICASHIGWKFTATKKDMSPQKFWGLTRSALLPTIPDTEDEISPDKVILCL
Sequence of PPIL4 with GFP-CRBN-DDB1∆B (Q8WUA2 whole entry): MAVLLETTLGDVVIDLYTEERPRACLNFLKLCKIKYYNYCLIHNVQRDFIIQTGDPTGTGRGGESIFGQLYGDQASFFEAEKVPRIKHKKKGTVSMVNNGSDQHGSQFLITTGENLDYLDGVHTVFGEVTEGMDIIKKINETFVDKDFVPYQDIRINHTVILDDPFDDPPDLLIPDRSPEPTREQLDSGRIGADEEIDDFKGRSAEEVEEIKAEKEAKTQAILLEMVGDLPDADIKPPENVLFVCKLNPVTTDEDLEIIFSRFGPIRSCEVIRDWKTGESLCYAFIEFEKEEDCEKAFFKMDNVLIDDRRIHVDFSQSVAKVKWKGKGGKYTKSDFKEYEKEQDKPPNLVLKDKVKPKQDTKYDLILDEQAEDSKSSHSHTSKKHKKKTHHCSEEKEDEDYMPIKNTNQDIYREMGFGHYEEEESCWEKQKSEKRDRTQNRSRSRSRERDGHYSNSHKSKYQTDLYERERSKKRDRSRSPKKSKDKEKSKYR
Sequence of PPIL4 with GFP-CRBN-DDB1∆B (Q16531 1-395 partner): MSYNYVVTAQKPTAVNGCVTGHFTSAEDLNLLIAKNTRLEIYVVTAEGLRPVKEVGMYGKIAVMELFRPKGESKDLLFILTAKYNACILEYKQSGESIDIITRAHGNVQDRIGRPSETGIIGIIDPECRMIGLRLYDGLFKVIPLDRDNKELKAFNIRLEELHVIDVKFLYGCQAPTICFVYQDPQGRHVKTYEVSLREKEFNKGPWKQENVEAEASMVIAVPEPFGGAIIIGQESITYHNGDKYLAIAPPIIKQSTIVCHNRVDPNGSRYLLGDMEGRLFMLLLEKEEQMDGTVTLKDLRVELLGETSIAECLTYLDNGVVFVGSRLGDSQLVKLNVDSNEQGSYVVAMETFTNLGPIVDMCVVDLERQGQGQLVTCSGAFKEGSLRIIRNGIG
Sequence of PPIL4 with GFP-CRBN-DDB1∆B (Q16531 706-1140 partner): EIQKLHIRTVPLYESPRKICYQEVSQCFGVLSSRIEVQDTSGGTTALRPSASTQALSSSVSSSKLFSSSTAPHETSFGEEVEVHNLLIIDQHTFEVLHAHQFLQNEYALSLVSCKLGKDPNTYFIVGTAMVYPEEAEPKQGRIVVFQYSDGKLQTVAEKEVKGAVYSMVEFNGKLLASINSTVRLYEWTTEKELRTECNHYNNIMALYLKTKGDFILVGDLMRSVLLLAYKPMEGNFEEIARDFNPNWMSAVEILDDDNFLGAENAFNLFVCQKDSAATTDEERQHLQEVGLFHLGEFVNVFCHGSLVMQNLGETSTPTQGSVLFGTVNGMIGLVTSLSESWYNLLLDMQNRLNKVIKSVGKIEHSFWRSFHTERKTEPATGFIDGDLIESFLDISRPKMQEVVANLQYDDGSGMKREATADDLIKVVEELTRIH

COc1cscc1-c1cn([C@H]2CCC(=O)NC2=O)nn1 [FPFT-2216]
EC50: 1050 nM
